Data published in patent publication US11986452B2, “Methods of reducing the risk of heart failure” (Amarin Pharmaceuticals Ireland Limited, priority 2021, dated 2024).

Key:
[1] = tested on: statin-treated patients with established atherosclerosis or diabetes plus risk factor; experiment: Example 2: recurrent and total ischemic events analysis (Andersen-Gill, Wei-Lin-Weissfeld); assay type: in vivo, human; conditions: for Total key secondary endpoint events: HR vs placebo: without adjustment for stratification differences
Source text: The following study was a multi-center, placebo-controlled clinical trial the details of which are described above in Example 1, the REDUCE-IT design. […] Randomization was stratified by cardiovascular risk cohort (i.e., secondary or primary prevention), use of ezetimibe, and by geographic region.
The primary outcome for the study was total recurrent events consisting of the composite of cardiovascular death, nonfatal myocardial infarction, nonfatal stroke, coronary revascularization, or hospitalization for unstable angina. Recurrent event analyses were also performed for the key secondary endpoint, a composite of cardiovascular death, non-fatal myocardial infarction, or non-fatal stroke. For each of these composite endpoints, the effects of icosapent ethyl in the secondary and primary prevention strata were examined separately.
Demographic and baseline disease characteristics are presented using frequencies and percentages for categorical variables and medians with interquartile ranges for continuous variables. Between treatment group comparisons were derived using the chi-square test for categorical variables and Wilcoxon rank test for continuous variables. All clinical endpoint events used in the efficacy analyses were adjudicated by an independent Clinical Endpoint Committee (CEC) who were blinded to the treatment assignment. Since the primary efficacy endpoint was the time from randomization to the first occurrence of any component of the composite endpoint, and recurrence of such events within each patient is possible, a pre-specified analysis using a Cox proportional-hazard with the counting-process formulation of Andersen and Gill was performed to model the first and all recurrent cardiovascular events. Hazard ratios (HR) and corresponding 95% confidence intervals (CI) are reported from this model. In addition, as a marginal model and an extension of survival models based on the Cox proportional hazard model, the modified Wei-Lin-Weissfeld (WLW) method for analysis of recurrent events in the presence of deaths was carried out as a supportive analysis. In addition, as pre-specified, a recurrent event analysis using the Andersen-Gill and Wei-Lin-Weissfeld methods were carried out for the individual primary event components other than CV death. Though not pre-specified, additional recurrent event analyses were performed for the key secondary endpoint, which is a composite of CV death, non-fatal MI, or non-fatal stroke, and for the primary endpoint and the key secondary endpoint in the primary and secondary prevention strata to explore further the consistency of clinical benefit of icosapent ethyl. In subgroup analyses of the two cardiovascular risk strata (i.e., primary and secondary prevention), site-level discrepancies in cardiovascular risk group assignment occurring at entry and detected during the study (1.8%) were adjusted to conform with documented medical history data prior to randomization. All efficacy analyses were performed according to the intention-to-treat principle. All tests were based on a 2-sided nominal significance level of 5% with no adjustments for multiple comparisons.

[2] = tested on: statin-treated patients with established CVD or at high risk for CVD, and hypertriglyceridemia; experiment: REDUCE-IT time-to-first-event analysis of adjudicated cardiovascular endpoints (primary, key secondary, secondary, tertiary); assay type: in vivo, human
Source text: The following study, also referred to as the REDUCE-IT clinical trial, was a large cardiovascular (CV) outcome trial designed to assess CV risk reduction benefit of AMR101 treatment (commercially known as VASCEPA®) versus placebo on the 5-point primary composite endpoint: CV death, non-fatal stroke, non-fatal myocardial infarction (MI), coronary revascularizations, or unstable angina requiring hospitalization.
A multi-center, prospective, randomized, double-blind, placebo-controlled, parallel-group study was performed to evaluate the effect of AMR101 (4 g per day) on cardiovascular health and mortality in hypertriglyceridemic patients with cardiovascular disease or at high risk for cardiovascular disease. The intended expanded indication of the study was treatment with AMR101 as an add-on to statin therapy to reduce the risk of cardiovascular events in patients with clinical cardiovascular disease or with multiple risk factors for cardiovascular disease.
The primary objective of this study was, in patients at LDL-C goal while on statin therapy, with established cardiovascular disease (CVD) or at high risk for CVD, and hypertriglyceridemia (e.g., fasting triglycerides (TG) 200 mg/dL and <500 mg/dL), to evaluate the effect of AMR101 4 g daily on time from randomization to first occurrence of any component of the composite of the following major CV events: CV death; nonfatal MI; (including silent MI; electrocardiograms (ECGs) were performed annually for the detection of silent MIs); nonfatal stroke; coronary revascularization; and unstable angina determined to be caused by myocardial ischemia by invasive/non-invasive testing and requiring emergent hospitalization.
The key secondary objective of this study was to evaluate the effect of AMR101 4 g daily on the time from randomization to the first occurrence of the composite of following major CV events: CV death, nonfatal MI (including silent MI), and nonfatal stroke.
Other secondary objectives for this study were to evaluate the effect of therapy on time from randomization to the first occurrence of the following individual or composite endpoints: composite of CV death or nonfatal MI (including silent MI); fatal or nonfatal MI (including silent MI); non-elective coronary revascularization represented as the composite of emergent or urgent classifications; CV death; unstable angina determined to be caused by myocardial ischemia by invasive/non-invasive testing and requiring emergent hospitalization; fatal or nonfatal stroke; composite of total mortality, nonfatal MI (including silent MI), or nonfatal stroke; and total mortality.
Primary Efficacy Endpoint: The primary efficacy endpoint was time from randomization to the first occurrence of the composite of the following clinical events: CV death; nonfatal MI (including silent MI; ECGs were performed annually for the detection of silent MIs); nonfatal stroke; coronary revascularization; and unstable angina determined to be caused by myocardial ischemia by invasive/non-invasive testing and requiring emergent hospitalization. The first occurrence of any of these major adverse vascular events during the follow-up period of the study were included in the incidence.
Secondary Efficacy Endpoints: The key secondary efficacy endpoint was the time from randomization to the first occurrence of the composite of CV death, nonfatal MI (including silent MI), or nonfatal stroke. […]

[3] = 4 g per day, hierarchical testing
[4] = 4 g/day, time to first occurrence, ITT, median follow up 4.9 years

## CC/C=C\C/C=C\C/C=C\C/C=C\C/C=C\CCCC(=O)OCC [icosapent ethyl, eicosapentaenoic acid ethyl ester]
[1]; primary prevention stratum
  Total key secondary endpoint: HR vs placebo: 0.71
[1]; primary prevention stratum, adjusted stratification
  Total primary endpoint events: HR vs placebo: 0.79
[1]; primary prevention stratum, without adjusting for stratification differences
  Total primary endpoint events: HR vs placebo: 0.86
[1]; primary prevention
  Total key secondary endpoint events: HR vs placebo: 0.78
[1]; secondary prevention stratum
  Total key secondary endpoint: HR vs placebo: 0.70
  Total key secondary endpoint events: HR vs placebo: 0.69
[1]; secondary prevention stratum, adjusted stratification
  Total primary endpoint events: HR vs placebo: 0.66
[1]; secondary prevention stratum, without adjusting for stratification differences
  Total primary endpoint events: HR vs placebo: 0.65
[2]; [3]
  Cardiovascular death: RRR: 20%
  Composite of cardiovascular death or nonfatal myocardial infarction: RRR: 25%
  Composite of total mortality, nonfatal myocardial infarction, or nonfatal stroke: reduction: 23%
  Fatal or nonfatal myocardial infarction: RRR: 31%
  Fatal or nonfatal stroke: RRR: 28%
  Total mortality: reduction: 13%
[2]; 4 g/day vs placebo
  Sudden death: reduction: 31%
[2]; 4 g/day, ITT
  Cardiovascular death: HR vs placebo: 0.80
  Cardiovascular death: patients with event: 4.3%
  Total mortality: HR vs placebo: 0.87
  Total mortality: patients with event: 6.7%
[2]; [4]
  Key secondary composite endpoint (CV death, nonfatal MI, or nonfatal stroke): patients with event: 11.2%
  Primary composite endpoint (CV death, nonfatal MI, nonfatal stroke, coronary revascularization, or unstable angina): patients with event: 17.2%
[2]; tertiary endpoint
  Cardiac Arrest: HR vs placebo: 0.52
  Coronary Revascularization: HR vs placebo: 0.66
  Elective Revascularization: HR vs placebo: 0.68
  Emergent Revascularization: HR vs placebo: 0.62
  Ischemic Stroke: HR vs placebo: 0.64
  New Heart Failure Requiring Hospitalization: HR vs placebo: 0.97
  New Heart Failure: HR vs placebo: 0.95
  Primary Endpoint in Patients with Diabetes at Baseline: HR vs placebo: 0.77
  Salvage Revascularization: HR vs placebo: 0.00
  Sudden Cardiac Death: HR vs placebo: 0.69
  Urgent Revascularization: HR vs placebo: 0.66
[2]; tertiary endpoint, 4 g/day
  Primary Endpoint in Patients with Diabetes at Baseline: patients with event: (18.1%)
  Sudden Cardiac Death: patients with event: (1.5%)
